# Results reported in patent publication US20090131354A1, “miR-126 REGULATED GENES AND PATHWAYS AS TARGETS FOR THERAPEUTIC INTERVENTION” (priority 2007, published 2009).
# System: Du145 prostate cancer cells
# Experiment: Alamar Blue proliferation assay, Du145
# Assay type: cell-based, human
# Settings: 30 nM, normalized to negative control miRNA (100% proliferation)
# Description: The inventors assessed the therapeutic effect of hsa-miR-126 for prostate cancer by using 4 individual human prostate cancer cell lines. To measure cellular proliferation of prostate cancer cells, the following prostate cancer cell lines were used: PPC-1, derived from a bone metastasis; Du145, derived from a brain metastasis; RWPE2, derived from prostate cells immortalized by human papillomavirus 18 and transformed by the K-RAS oncogene; and LNCaP, derived from a lymph node metastasis (Stone et al., 1978; Horoszewicz et al., 1980; Brothman et al., 1991; Pretlow et al., 1993; Bello et al., 1997). PPC-1 and Du145 cells lack expression of the prostate-specific antigen (PSA) and are independent of androgen receptor (AR) signaling. In contrast, RWPE2 and LNCaP cells test positive for PSA and AR. Cells were transfected with synthetic hsa-miR-126 (Pre-miR™-hsa-miR-126, Ambion cat. no. AM 17100) or negative control miRNA (NC; Pre-miR™ microRNA Precursor Molecule-Negative Control #2; Ambion cat. no. AM17111) in a 96-well format using a lipid-based transfection reagent. […] Proliferation was assessed 4-7 days post-transfection using Alamar Blue™ (Invitrogen) following the manufacturer's instructions. […] Fluorescent light units (FLU) were measured after 3 hours, normalized to the control, and plotted as percent change in proliferation. […]
substance,measurement,value
"hsa-miR-126 (UCGUACCGUGAGUAAUAAUGC; synthetic pre-miR form, further chemistry not given here) [Synthetic hsa-miR-126 (Pre-miR™-hsa-miR-126, Ambion cat. no. AM17100)]",% proliferation,63.41%
